For 5 compounds, IC50 and inhibition results are on record in ChEMBL document CHEMBL1126510, “Synthesis of D-3-deoxy-3-phosphonomethyl-myo-inositol and its dimethyl ester - compounds of use in studying the ptdins-3-kinase signalling pathway” (Bioorg Med Chem Lett, 1993).

Activity calls are given as the source filed them. The rule behind the calls is not given here.

The term IC50 denotes the point on the concentration scale where inhibition reaches its midpoint. As usually defined, the inhibition is the share of the control response that was lost under treatment.

What all share (conditions): Mus musculus
In test [1] the test system is NIH3T3. The experiment in a line: Inhibitory concentration against growth of vis-sis transformed NIH 3T3 cells with inositol. It counts as functional, cell-based.
Test [2] concerns NIH3T3. The experiment in a line: Inhibitory concentration against growth of wild type NIH 3T3 cells with inositol. It counts as functional, cell-based.
Test [3] concerns NIH3T3. The experiment in a line: Inhibitory concentration against growth of wild type NIH 3T3 cells without inositol. It counts as functional, cell-based.
Test [4] relates to NIH3T3. The test is described as follows: Inhibitory concentration against growth of vis-sis transformed NIH 3T3 cells without inositol. It counts as functional, cell-based.
Test [5] deals with NIH3T3. The experiment in a line: Inhibitory activity against growth of vis-sis transformed NIH 3T3 cells at 1 mM; IA means inactive. It counts as functional, cell-based.
In test [6] the test system is NIH3T3. The test is described as follows: Inhibitory activity against growth of wild type NIH 3T3 cells at 1 mM. It counts as functional.
The subject of test [7] is NIH3T3. The experiment in a line: Inhibitory activity against growth of wild type NIH 3T3 cells at 1 mM; IA means inactive. It counts as functional, cell-based.
Test [8] relates to NIH3T3. The experiment in a line: Inhibitory concentration against growth of vis-sis transformed NIH 3T3 cells at 1 mM; IA means inactive. It counts as functional, cell-based.

On to `OC1C(O)C(O)C(CI)C(O)C1O` (centres undefined), for which the IC50 in the test with NIH3T3 [1] was 56.2 mM; with NIH3T3 [2], 43 mM; with NIH3T3 [3], 23.8 mM; with NIH3T3 [4], 19.9 mM.
For `COP(=O)(CC1C(O)[C@H](O)C(O)[C@@H](O)C1O)OC` (some centres undefined), the inhibition result with NIH3T3 [5] is “inactive”. In addition, the inhibition at 1000 µM in the test with NIH3T3 [6] turned out to be 30%.
With `O=P(O)(O)CC1C(O)[C@H](O)C(O)[C@@H](O)C1O` (some centres undefined), the inhibition entry in the test with NIH3T3 [5] is “inactive”. This compound also gave an inhibition at 1000 µM in the test on NIH3T3 [6] of 30%.
Take `OCC1C(O)C(O)C(O)C(O)C1O` (centres undefined): the concentration for half-maximal inhibition (IC50) turned out to be 5.5 mM with NIH3T3 [1], 4.3 mM in the test with NIH3T3 [2], 23.8 mM in the test on NIH3T3 [3] and 10 mM with NIH3T3 [4].
Consider `C=C1C(O)[C@H](O)C(O)[C@@H](O)C1O` (some centres undefined), for which the inhibition entry in the test on NIH3T3 [7] and in the test on NIH3T3 [8] was “inactive” each time.
